Key:
Type in all cases: in vivo
[1] = system: Blackseed Plantain (Plantago rugelii); test: Example 2 post-emergent turf plot test, plantain; conditions: 0.75 lb ai/acre
Protocol: (§1) The experimental design used randomized plots with post-emergent treatment and three replications per test trial. The size of each experimental plot was 4 feet by 6 feet. The application of each test composition was performed with pressurized back-pack sprayers, calibrated to spray 200 gallons per acre. Test compositions containing sulfentrazone (DISMISS™ Turf Herbicide), quinclorac, (FACET® 75 DF herbicide) or a mixture of sulfentrazone and quinclorac in a one to three ratio, prepared as described above, were diluted with water to provide the appropriate test rate concentrations.
(§2) The control of weeds was evaluated in each experimental plot from 1 to 27 days after treatment (DAT) of each test rate. The results, shown as an average of the replications, were compared with results observed in untreated control plots in the same trials.

[2] = system: White Clover (Trifolium repens); test: Example 2 post-emergent turf plot test, clover; conditions: 0.75 lb ai/acre
Protocol: as §1, §2

[3] = system: Red River crabgrass (Digitaria ciliaris); test: Example 3 post-emergence greenhouse pot test, crabgrass
Protocol: Test compositions containing sulfentrazone (DISMISS™ Turf Herbicide), quniclorac, (DRIVE® 75 DF Herbicide) or mixture of sulfentrazone and quinclorac in a three to one ratio, prepared as described above, were diluted with water to provide the appropriate test rate concentrations. A nonionic surfactant (0.25%) was added to each test solution.
The test weeds include Red River crabgrass (Digitaria ciliaris) and yellow nutsedge (Cyperus esculentusi).
For post-emergence testing, three disposable 3 inch square pots for each rate of application of each herbicide were filled with a soil, comprised of peat moss, vermiculite, bark ash, pine bark, limestone and a wetting agent, to which 8 to 10 seeds were planted. The pots were placed in a greenhouse and watered daily, thus allowing the seeds to germinate and the foliage to develop.
(§3) Pots designated for treatment were placed on a conveyor belt and the conveyor belt fed under a spray nozzle mounted about ten inches above the foliage. The spray of herbicidal solution was commenced and once stabilized; the pots were passed under the spray at a speed to receive a coverage equivalent of 30 gallons per acre. The application rates are those shown in Table 3 below for the individual herbicidal solutions and the mixture of sulfentrazone and quinclorac. The post-emergence pots were immediately placed in the green-house and not watered until 24 hours after treatment with the test solution. Thereafter they were regularly watered at ground level. The control of weeds was evaluated in each experimental test from 1 to 22 days after treatment (DAT). The results, shown as an average of the replications, were compared with results observed in untreated control pots in the same tests.
(§4) Percent control was determined by a method similar to the 0 to 100 rating system disclosed in “Research Methods in Weed Science,” 2nd ed., B. Truelove, Ed.; Southern Weed Science Society; Auburn University, Auburn, Ala., 1977.

[4] = system: Yellow Nutsedge (Cyperus esculentus); test: Example 2 post-emergent turf plot test, nutsedge; conditions: 0.75 lb ai/acre
Protocol: as §1, §2

crabgrass (Digitaria sp) = test: Example 4 post-emergence greenhouse pot test, crabgrass
Protocol: Test compositions containing sulfentrazone (75 DF formulation), quniclorac, (DRIVE® 75 DF Herbicide) or mixtures of sulfentrazone and quinclorac at ratios of 1:1 to 1:5, were diluted with water to provide the appropriate test rate concentrations. A nonionic surfactant (0.25%) was added to each test solution. The test weeds include crabgrass (Digitaria sp), Chickweed (Stellaria media), Hemp Sesbania (Sesbania exaltata), Kochia (Kochia scoparia), Ivyleaf Morningglory (Ipomoea hederacea), Redroot Pigweed (Amaranthus retroflexus) and yellow nutsedge (Cyperus esculentusi).
For post-emergence testing, three disposable 3 inch square pots for each rate of application of each herbicide were filled with a soil, comprised of peat moss, vermiculite, bark ash, pine bark, limestone and a wetting agent, to which 8 to 10 seeds were planted. The pots were placed in a greenhouse and watered daily, thus allowing the seeds to germinate and the foliage to develop for 22 days, 3 months for Kochia.
as §3, with “Table 4” for “Table 3”, “from 2” for “from 1”, “to 20” for “to 22”
as §4

SMILES: O=C(O)c1c(Cl)ccc2cc(Cl)cnc12 [B, 3,7-dichloro-8-quinolinecarboxylic acid]
- Percent Control ([1]; 7 DAT): 83%
- Percent Control ([1]; 14 DAT): 100%
- Percent Control ([1]; 21 DAT): 100%
- Percent Control ([2]; 7 DAT): 60%
- Percent Control ([2]; 14 DAT): 87%
- Percent Control ([2]; 21 DAT): 82%
- Percent Control ([3]; 1-2 leaf stage, 11 days old, 0.375 lb ai/acre, 1 DAT): 0%
- Percent Control ([3]; 1-2 leaf stage, 11 days old, 0.375 lb ai/acre, 3 DAT): 5%
- Percent Control ([3]; 1-2 leaf stage, 11 days old, 0.375 lb ai/acre, 7 DAT): 5%
- Percent Control ([3]; 1-2 leaf stage, 11 days old, 0.375 lb ai/acre, 14 DAT): 0%
- Percent Control ([3]; 1-2 leaf stage, 11 days old, 0.375 lb ai/acre, 21 DAT): 0%
- Percent Control ([3]; 1-2 leaf stage, 11 days old, 0.75 lb ai/acre, 1 DAT): 0%
- Percent Control ([3]; 1-2 leaf stage, 11 days old, 0.75 lb ai/acre, 3 DAT): 10%
- Percent Control ([3]; 1-2 leaf stage, 11 days old, 0.75 lb ai/acre, 7 DAT): 5%
- Percent Control ([3]; 1-2 leaf stage, 11 days old, 0.75 lb ai/acre, 14 DAT): 0%
- Percent Control ([3]; 1-2 leaf stage, 11 days old, 0.75 lb ai/acre, 21 DAT): 0%
- Percent Control ([3]; 1-2 leaf stage, 11 days old, 1.0 lb ai/acre, 1 DAT): 0%
- Percent Control ([3]; 1-2 leaf stage, 11 days old, 1.0 lb ai/acre, 3 DAT): 10%
- Percent Control ([3]; 1-2 leaf stage, 11 days old, 1.0 lb ai/acre, 7 DAT): 10%
- Percent Control ([3]; 1-2 leaf stage, 11 days old, 1.0 lb ai/acre, 14 DAT): 2%
- Percent Control ([3]; 1-2 leaf stage, 11 days old, 1.0 lb ai/acre, 21 DAT): 2%
- Percent Control ([3]; 3-4 leaf stage, 1-2 tillers, 14 days old, 0.375 lb ai/acre, 1 DAT): 0%
- Percent Control ([3]; 3-4 leaf stage, 1-2 tillers, 14 days old, 0.375 lb ai/acre, 3 DAT): 5%
- Percent Control ([3]; 3-4 leaf stage, 1-2 tillers, 14 days old, 0.375 lb ai/acre, 7 DAT): 5%
- Percent Control ([3]; 3-4 leaf stage, 1-2 tillers, 14 days old, 0.375 lb ai/acre, 14 DAT): 0%
- Percent Control ([3]; 3-4 leaf stage, 1-2 tillers, 14 days old, 0.375 lb ai/acre, 21 DAT): 0%
- Percent Control ([3]; 3-4 leaf stage, 1-2 tillers, 14 days old, 0.75 lb ai/acre, 1 DAT): 0%
- Percent Control ([3]; 3-4 leaf stage, 1-2 tillers, 14 days old, 0.75 lb ai/acre, 3 DAT): 5%
- Percent Control ([3]; 3-4 leaf stage, 1-2 tillers, 14 days old, 0.75 lb ai/acre, 7 DAT): 5%
- Percent Control ([3]; 3-4 leaf stage, 1-2 tillers, 14 days old, 0.75 lb ai/acre, 14 DAT): 5%
- Percent Control ([3]; 3-4 leaf stage, 1-2 tillers, 14 days old, 0.75 lb ai/acre, 21 DAT): 0%
- Percent Control ([3]; 3-4 leaf stage, 1-2 tillers, 14 days old, 1.0 lb ai/acre, 1 DAT): 0%
- Percent Control ([3]; 3-4 leaf stage, 1-2 tillers, 14 days old, 1.0 lb ai/acre, 3 DAT): 5%
- Percent Control ([3]; 3-4 leaf stage, 1-2 tillers, 14 days old, 1.0 lb ai/acre, 7 DAT): 10%
- Percent Control ([3]; 3-4 leaf stage, 1-2 tillers, 14 days old, 1.0 lb ai/acre, 14 DAT): 5%
- Percent Control ([3]; 3-4 leaf stage, 1-2 tillers, 14 days old, 1.0 lb ai/acre, 21 DAT): 5%
- Percent Control ([4]; 7 DAT): 83%
- Percent Control ([4]; 14 DAT): 54%
- Percent Control ([4]; 21 DAT): 37%
- Percent Control (crabgrass (Digitaria sp); 0.25 lb ai/acre, 2 DAT): 10%
- Percent Control (crabgrass (Digitaria sp); 0.25 lb ai/acre, 7 DAT): 20%
- Percent Control (crabgrass (Digitaria sp); 0.25 lb ai/acre, 14 DAT): 20%
- Percent Control (crabgrass (Digitaria sp); 0.25 lb ai/acre, 20 DAT): 10%
- Percent Control (crabgrass (Digitaria sp); 0.5 lb ai/acre, 2 DAT): 0%
- Percent Control (crabgrass (Digitaria sp); 0.5 lb ai/acre, 7 DAT): 10%
- Percent Control (crabgrass (Digitaria sp); 0.5 lb ai/acre, 14 DAT): 60%
- Percent Control (crabgrass (Digitaria sp); 0.5 lb ai/acre, 20 DAT): 50%
- Percent Control (crabgrass (Digitaria sp); 0.75 lb ai/acre, 2 DAT): 0%
- Percent Control (crabgrass (Digitaria sp); 0.75 lb ai/acre, 7 DAT): 0%
- Percent Control (crabgrass (Digitaria sp); 0.75 lb ai/acre, 14 DAT): 60%
- Percent Control (crabgrass (Digitaria sp); 0.75 lb ai/acre, 20 DAT): 50%
- Percent Control (crabgrass (Digitaria sp); 1.0 lb ai/acre, 2 DAT): 0%
- Percent Control (crabgrass (Digitaria sp); 1.0 lb ai/acre, 7 DAT): 10%
- Percent Control (crabgrass (Digitaria sp); 1.0 lb ai/acre, 14 DAT): 60%
- Percent Control (crabgrass (Digitaria sp); 1.0 lb ai/acre, 20 DAT): 70%
- Percent Control (crabgrass (Digitaria sp); 1.25 lb ai/acre, 2 DAT): 0%
- Percent Control (crabgrass (Digitaria sp); 1.25 lb ai/acre, 7 DAT): 10%
- Percent Control (crabgrass (Digitaria sp); 1.25 lb ai/acre, 14 DAT): 60%
- Percent Control (crabgrass (Digitaria sp); 1.25 lb ai/acre, 20 DAT): 70%

From patent US10897901B2, “Herbicidal composition” (FMC Corporation, priority 2007, dated 2021)
